Test results as given in article PMC4726707, “Effect of Copper and Zinc on the Single Molecule Self-Affinity of Alzheimer’s Amyloid-β Peptides” (PLoS ONE, 2016).
“Also recorded” adds a separate entry of the source. Like-named read-outs stand apart in the source and are kept apart here.

How the values were obtained:
amyloid-β (1–42) (Aβ42) = biological target: T1, amyloid-β (1–42) (Aβ42) (Homo sapiens, UniProt P05067); test: Single molecule force spectroscopy / dynamic force spectroscopy (AFM) of Aβ-Aβ dimer dissociation, Friddle-De Yoreo model; format: binding; conditions: for change of Aβ-Aβ self-affinity / dimer dissociation constant by metal ion: 20 nM (nanomolar) metal ion vs aqueous HEPES buffer control; for change of association rate (kon) of Aβ-Aβ vs aqueous control: 20 nM metal ion, kon = koff/Kd; for Kd: read-out: chemical dissociation constant, Kd
T1 construct: purchased rPeptide (Bogart USA)
Source text: In this work we used single molecule force spectroscopy (SMFS) to further elucidate the mechanism of the very initial stage of amyloid aggregation—the dimerization of two peptides. SMFS is a nanoscale technique whereby an atomic force microscopy (AFM) tip is used to probe the unbinding of two molecules of interest—one bound to the surface, the other to the tip. When AFM tip is brought to the surface the binding between two Aβ monomers occur and when the tip is retracted the unbinding forces between two monomers are measured. To extract kinetic and thermodynamic parameters governing the system, the retraction velocity of the tip is varied. This iteration of SMFS is referred to as dynamic force spectroscopy (DFS).
We prepared our experiments in accordance with our previous force spectroscopy experiments, of which the methods are detailed extensively in [23]. Briefly, Veeco MLCT SiNi AFM cantilever were cleaned by soaking in ethanol and exposing to UV light for 30 minutes. […] The mica and cantilevers were then soaked for 3 hours in a solution of 3400 MW NHS-PEG-MAL (Laysan Bio, Alabaster GA) solution. […] The surface of the cantilever tip and mica surface were soaked in the Aβ solution for 30 minutes. Following rinsing, unreacted maleimide groups were quenched with b-merceptoethanol. Tips and mica were then rinsed and stored in HEPES buffer.
Typical cantilever spring constants were between 8 and 120 mN/m but varied with each individual experiment. Spring constants were measured using Hutter’s thermal noise method. A series of force curves were taken with an approach and retract velocity varying between 50 and 10,000 nm/s resulting in loading rates between 0.3 and 300 nN/s. Following the collection of an Aβ42 data set in HEPES buffer, a 20 nM metal ionic solution (Cu^2+ or Zn^2+) in HEPES buffer was added to the liquid cell of the AFM and additional force curves were collected for comparison.
JPK data analysis software was used to analyze force curves. […] The force curves were smoothed, the x-axis leveled, both axes set to 0, and the force curve corrected for cantilever bending to obtain tip-sample separation, z. A WLC fit was obtained for each force curve while rupture force and contour length data were recorded. Data was sorted in order of rupture force and the highest rupture force data were eliminated using Poisson statistics to eliminate force curves that were likely the result of simultaneous multiple unbinding events.
Loading rates were corrected to account for the effect of the PEG linker. We fit the Friddle-De Yoreo reversible binding equation to the entirety of the dataset (comprised of the rupture force and corrected loading rate of each force curve) using a Levenberg-Marquardt best fit algorithm in Origin 9.0 graphing software. For pooled datasets, we used the mean spring constant of the cantilevers used in the experiments. We extracted the equilibrium force, feq, the thermal scaling factor, fβ, and the kinetic off rate, koff(feq) at the equilibrium force as well as standard errors from the dataset using the graphing software. These parameters were then used to calculate parameters ΔG (the difference in free energy between the bound and free states), xβ (the width of the energy barrier), koff (the kinetic dissociation, or off- rate), and Kd (the dissociation constant) using the equations used in [34, 35].
Analysis of variance (ANOVA) testing was conducted on ΔG, xβ, koff, and Kd. Following the ANOVA test, a post hoc Welsh’s t-test was conducted to compare the parameters for the aqueous experiments compared to the copper experiments and for the aqueous environment experiments compared to the zinc experiments.

Aβ [1] = conditions: cited from earlier work
Source text: Despite the well established effect ...

Aβ [2] = conditions: cited from earlier work; remark: listed apart in the source
Source text: The role of metal ions on amyloid aggregation and toxicity has been studied extensively. […] Cu^2+ ions increase neurotoxicity by both accelerating amyloid aggregation and increasing oxidative stress. This increased propensity of Aβ to aggregate in a Cu^2+ rich environment has been attributed to Cu^2+ ions causing Aβ to move closer to its isoelectric point, thereby inducing aggregation. […] In this work, rather than determining the affinity of metal ions to the Aβ monomer, we calculated the self-affinity of two Aβ42 peptides in the presence of copper and zinc ions.

Aβ (1–42) = conditions: with Cu^2+ ions; cited from earlier work
Source text: Our previous results led us to hypothesize that since […] AD is largely a function of abnormal Aβ clearance, increased affinity of Aβ would make amyloid clearance considerably more problematic. In this work we used single molecule force spectroscopy (SMFS) to further elucidate the mechanism of the very initi ...

Molecule	change of Aβ-Aβ self-affinity / dimer dissociation constant by metal ion (amyloid-β (1–42) (Aβ42))	change of Aβ-Aβ self-affinity / dimer dissociation constant by metal ion (amyloid-β (1–42) (Aβ42); listed as zinc)	change of association rate (kon) of Aβ-Aβ vs aqueous control (amyloid-β (1–42) (Aβ42))	change of height of the energy barrier (amyloid-β (1–42) (Aβ42); with Zn^2+ 20 nM vs aqueous control)	change of Aβ-Aβ self-affinity / dimer dissociation constant by metal ion (amyloid-β (1–42) (Aβ42); listed as copper)	nucleation and elongation of amyloid fibril formation (Aβ [1]; substoichiometric concentrations of Cu^2+ ions)	Aβ aggregation onset (Aβ [1]; trace concentrations of copper vs aqueous without metal ions)	Cu^2+-Aβ affinity (Aβ [2])	Cu^2+-Aβ affinity (Aβ [2]; listed as Copper)	unbinding force between two Aβ (1–42) peptides (Aβ (1–42))	ΔG (free energy difference between bound and unbound states) for Aβ-Aβ unbinding (amyloid-β (1–42) (Aβ42); aqueous HEPES 50 mM buffer, pH 7.4, 150 mM NaCl, no metal ion added)	Kd (amyloid-β (1–42) (Aβ42); control, Aβ dimerization in HEPES buffer)	Kd (amyloid-β (1–42) (Aβ42); with 20 nM Cu^2+)	ΔG (free energy difference between bound and unbound states) for Aβ-Aβ unbinding (amyloid-β (1–42) (Aβ42); with Cu^2+ [20nM] in HEPES buffer pH 7.4)	ΔG (free energy difference between bound and unbound states) for Aβ-Aβ unbinding (amyloid-β (1–42) (Aβ42); with Zn^2+ [20nM] in HEPES buffer pH 7.4)
[Zn+2] [Zn^2+, zinc]	decreases the affinity of Aβ-Aβ interactions by an order of magnitude	decrease the affinity of Aβ-Aβ by an order of magnitude; also recorded: increases the dimer dissociation constant (which corresponds to a decreased monomer-monomer chemical affinity) by an order of magnitude	half an order of magnitude lower; also recorded: one-fifth of the control experiment	decreased the height of the energy barrier											
[Cu+2] [Cu^2+, copper]			approximately half an order of magnitude higher; also recorded: approximately five times higher than the association rate in the control experiments		do not change the single molecule affinity of Aβ to another Aβ peptide in a statistically significant way; also recorded: does not change the dissociation constant by a statistically significant amount; also recorded: did not measure a significant effect	induce acceleration in both the nucleation and elongation phases of amyloid fibril formation	Aβ begins to aggregate instantly compared to the characteristic lag period	nanomolar to picomolar range	nano- to picomolar range	increased the unbinding force between two Aβ (1–42) peptides					
amyloid-β (1–42) [Aβ-Aβ]											7.83 ± 3.03 kBT	402 µM	173 µM	8.66 ± 1.62 kBT	4.89 ± 1.35 kBT
